In ChEMBL document CHEMBL2417415, “Polyketides with New Delhi metallo-β-lactamase 1 inhibitory activity from Penicillium sp” (J Nat Prod, 2013):
≈ marks a conversion by molar mass, not a printed value. Calls of active or inactive are those of the source. The calls are words filed in the database; no cut-off is given here.

Columns and labels:
Klebsiella pneumoniae [1] = assay: Antibacterial activity against Klebsiella pneumoniae ATCC BAA-2146 at 10 uM after 24 hrs by spectrophotometry; format: functional, organism-based
HCT-8 = assay: Cytotoxicity assay against human HCT8 cells at 10 uM after 96 hrs by MTT assay; format: functional, cell-based
KETR3 = assay: Cytotoxicity assay against human Ketr3 cells at 10 uM after 96 hrs by MTT assay; format: functional, cell-based
Bel-7402 = assay: Cytotoxicity assay against human Bel7402 cells at 10 uM after 96 hrs by MTT assay; format: functional, cell-based
MCF7 = assay: Cytotoxicity assay against human MCF7 cells at 10 uM after 96 hrs by MTT assay; format: functional, cell-based
BGC-823 = assay: Cytotoxicity assay against human BGC823 cells at 10 uM after 96 hrs by MTT assay; format: functional, cell-based
A549 = assay: Cytotoxicity assay against human A549 cells at 10 uM after 96 hrs by MTT assay; format: functional, cell-based
Coxsackievirus B3 = assay: Antiviral activity against Coxsackievirus B3 at 10 uM; format: functional, organism-based
Influenza A virus [2] = assay: Antiviral activity against influenza A virus A/FM/1/47 (H1N1) infected in MDCK cells at 10 uM by Reed and Muench analysis; format: functional, organism-based
Influenza A virus [3] = assay: Antiviral activity against influenza A virus A/Hanfang/359/95 (H3N2) infected in MDCK cells at 10 uM by Reed and Muench analysis; format: functional, organism-based
[4] = Inhibition of NDM-1 (unknown origin) expressed in Escherichia coli BL21 using meropenem as substrate compound preincubated for 15 min by spectrophotometry
Klebsiella pneumoniae [5] = assay: Antibacterial activity against Klebsiella pneumoniae ATCC BAA-2146 after 24 hrs by spectrophotometry; format: functional; settings: ATCC BAA-2146, 24 h
Klebsiella pneumoniae [6] = assay: Antibacterial activity against Klebsiella pneumoniae ATCC BAA-2146 assessed as reduction in meropenem MIC at 128 ug/mL after 24 hrs by spectrophotometry; format: functional, organism-based
Klebsiella pneumoniae [7] = assay: Antibacterial activity against Klebsiella pneumoniae ATCC BAA-2146 at 256 ug/mL after 24 hrs by spectrophotometry; format: functional, organism-based

Compound	Activity (Klebsiella pneumoniae [1])	Activity (HCT-8)	Activity (KETR3)	Activity (Bel-7402)	Activity (MCF7)	Activity (BGC-823)	Activity (A549)	Activity (Coxsackievirus B3)	Activity (Influenza A virus [2])	Activity (Influenza A virus [3])	IC50 [4]	MIC (Klebsiella pneumoniae [5])	Activity (Klebsiella pneumoniae [6])	Activity (Klebsiella pneumoniae [7])
C[C@H]1C[C@@H](O)[C@@H]2O[C@@H]2[C@H]1O	inactive	inactive	inactive	inactive	inactive	inactive	inactive	inactive	inactive	inactive				
C[C@H](CS)C(=O)N1CCC[C@H]1C(=O)O [CAPTOPRIL]											108 µM			
O=C(O)C[C@H](NC(=O)c1cc(=O)[nH]c2ccccc12)C(=O)O	inactive	inactive	inactive	inactive	inactive	inactive	inactive	inactive	inactive	inactive				
C[C@@H](O)[C@H]1C(=O)N2C(C(=O)O)=C(S[C@@H]3CN[C@H](C(=O)N(C)C)C3)[C@H](C)[C@H]12 [MEROPENEM]												128 µg/mL (≈ 334 µM)		
COc1c(O)cc2oc3cc(C)ncc3c(=O)c2c1C(=O)O	inactive	inactive	inactive	inactive	inactive	inactive	inactive	inactive	inactive	inactive	87.9 µM		inactive	inactive
O=C(O)CN(CCN(CC(=O)O)CC(=O)O)CC(=O)O [EDETIC ACID]											< 0.1 µM			
C[C@H](CS)C(=O)N1CCC[C@@H]1C(=O)O [D-CAPTOPRIL]											8 µM			
CC(=O)C[C@H](O)c1coc2cc(O)cc(C(=O)O)c2c1=O	inactive	inactive	inactive	inactive	inactive	inactive	inactive	inactive	inactive	inactive	94.9 µM		inactive	inactive
